The assay deals with Delta-5-Desaturase (D5D) (Homo sapiens (Human), UniProt O60427). The assay is described as follows: In vitro measurement of Delta-5-Desaturase inhibitory activity using DGLA-CoA and Arachidonyl-CoA mass spectrometric assays. The assay is classed as biochemical. Particulars: membrane preparations of D5D-overexpressing HEK293 6E cells; averaged over at least two independent runs. The essentials: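 Membranes from D5D-overexpressing HEK293 6E cells (10 μg/mL final) in Tris pH 7.5 with MgCl2, octyl glucoside and TCEP were mixed 1:1 with substrate solution (0.01 mM DGLA, 0.25 mM NADH, 0.25 mM ATP, 0.05 mM CoA) for 1 h at ambient temperature. RapidFire SPE-MS/MS MRM; IC50 by 4-parameter fit, ≥2 runs.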
Sequence of Delta-5-Desaturase (D5D) (O60427 whole entry, species assumed): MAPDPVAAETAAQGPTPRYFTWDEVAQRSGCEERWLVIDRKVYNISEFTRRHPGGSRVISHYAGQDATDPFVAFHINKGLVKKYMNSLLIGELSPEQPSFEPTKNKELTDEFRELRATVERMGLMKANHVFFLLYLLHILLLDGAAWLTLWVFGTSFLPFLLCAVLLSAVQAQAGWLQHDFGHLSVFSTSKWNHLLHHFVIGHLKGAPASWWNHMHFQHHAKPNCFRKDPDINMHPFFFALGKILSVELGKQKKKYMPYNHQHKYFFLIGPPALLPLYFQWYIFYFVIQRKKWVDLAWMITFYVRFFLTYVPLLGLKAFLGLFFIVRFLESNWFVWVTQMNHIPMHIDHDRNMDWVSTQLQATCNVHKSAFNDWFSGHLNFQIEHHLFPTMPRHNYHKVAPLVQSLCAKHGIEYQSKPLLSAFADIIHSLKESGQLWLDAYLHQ

`Cc1cnn2c(=O)c(-c3cnn(CC4CC(F)(F)C4)c3)c(C(F)(F)F)nc2c1` [Example 39-52, 3-{1-[(3,3-difluorocyclobutyl)methyl]-1H-pyrazol-4-yl)-8-methyl-2-(trifluoromethyl)-4H-pyrimido[1,2-b]pyridazin-4-one] returned a half-inhibitory concentration (IC50) of 0.42 µM.
Molecule `Cc1cnn2c(=O)c(-c3ccc(OCC(F)(F)F)cc3)c(C(F)(F)F)nc2c1` [Example 39-50, 8-methyl-3-[4-(2,2,2-trifluoroethoxy)phenyl]-2-(trifluoromethyl)-4H-pyrimido[1,2-b]pyridazin-4-one] registered an IC50 of 0.105 µM.
For the molecule `CNC(=O)c1ccn2c(=O)c(-c3cnn(CC(F)(F)C(F)(F)F)c3)c(C(F)(F)F)nc2c1` [Example 12-5, N-methyl-4-oxo-3-(1-(2,2,3,3,3-pentafluoropropyl)-1H-pyrazol-4-yl)-2-(trifluoromethyl)-4H-pyrido[1,2-a]pyrimidine-8-carboxamide], the IC50 was found to be 0.313 µM.
Consider `N#Cc1ccn2c(=O)c(-c3ccc(OCC(F)(F)F)cc3)c(C(F)(F)F)nc2c1` [Example 2-9, 4-oxo-3-(4-(2,2,2-trifluoroethoxy)phenyl)-2-(trifluoromethyl)-4H-pyrido[1,2-a]pyrimidine-8-carbonitrile], for which 0.44 µM corresponded to half-maximal inhibition (IC50).
`CSCOc1ccn2c(=O)c(-c3ccc(OCC(F)(F)F)cc3)c(C(F)(F)F)nc2c1` [Example 17-1, 8-((Methylsulfanyl)methoxy)-3-(4-(2,2,2-trifluoroethoxy)phenyl)-2-(trifluoromethyl)-4H-pyrido[1,2-a]pyrimidin-4-one] had a half-inhibitory concentration (IC50) of 0.317 µM.
`COc1ccn2c(=O)c(-c3ccc(O[C@H](C)C#N)cc3)c(C(F)(F)F)nc2c1` [Example 8-8, (2R)-2-(4-(8-methoxy-4-oxo-2-(trifluoromethyl)-4H-pyrido[1,2-a]pyrimidin-3-yl)phenoxy)propanenitrile]: half-maximal inhibition (IC50) was put at 0.566 µM.
In turn, `CC(C)c1ccn2c(=O)c(-c3ccc(OCC(F)(F)F)cc3)c(C(F)(F)F)nc2c1` [Example 1-32, 8-(2-propanyl)-3-(4-(2,2,2-trifluoroethoxy)phenyl)-2-(trifluoromethyl)-4H-pyrido[1,2-a]pyrimidin-4-one] came in with a half-maximal inhibitory concentration (IC50) of 0.421 µM.
Under `O=c1c(-c2cnn(-c3ccc(F)cc3)c2)c(C(F)(F)F)nc2ccccn12` [Example 1-46, 3-(1-(4-fluorophenyl)-1H-pyrazol-4-yl)-2-(trifluoromethyl)-4H-pyrido[1,2-a]pyrimidin-4-one] stands 0.0364 µM; under `COc1ccn2c(=O)c(-c3cnn(CC(F)(F)F)c3)c(C(F)(F)F)nc2c1` [Example 1-74, 8-methoxy-3-(1-(2,2,2-trifluoroethyl)-1H-pyrazol-4-yl)-2-(trifluoromethyl)-4H-pyrido[1,2-a]pyrimidin-4-one], 0.0276 µM.
Under `COc1ccn2c(=O)c(-c3ccc(OCC(F)(F)C(F)F)cc3)c(C(F)(F)F)nc2c1` [Example 9-1, 8-Methoxy-3-(4-(2,2,3,3-tetrafluoropropoxy)phenyl)-2-(trifluoromethyl)-4H-pyrido[1,2-a]pyrimidin-4-one] stands 0.0111 µM; under `COc1ccn2c(=O)c(-c3cnn(CC4CC4(F)F)c3)c(C(F)(F)F)nc2c1` (racemic) [Example 39-42, 3-{1-[(2,2-difluorocyclopropyl)methyl]-1H-pyrazol-4-yl}-8-methoxy-2-(trifluoromethyl)-4H-pyrido[1,2-a]pyrimidin-4-one], 0.0114 µM; under `O=c1ccn2c(=O)c(-c3cnn(CC(F)(F)C(F)(F)F)c3)c(C(F)(F)F)nc2n1CCl` [Example 65, 1-(Chloromethyl)-7-[1-(2,2,3,3,3-pentafluoropropyl)-1H-pyrazol-4-yl]-8-(trifluoromethyl)-1H,2H,6H-pyrimido[1,2-a][1,3]diazine-2,6-dione], 0.0905 µM.
Consider `N#CCc1ccn2c(=O)c(-c3cnn(CC(F)(F)C(F)(F)F)c3)c(C(F)(F)F)nc2c1` [Example 16-1, (4-Oxo-3-(1-(2,2,3,3,3-pentafluoropropyl)-1H-pyrazol-4-yl)-2-(trifluoromethyl)-4H-pyrido[1,2-a]pyrimidin-8-yl)acetonitrile], for which the IC50 was 0.0524 µM.
`O=c1c(-c2ccc(OCC(F)(F)F)cc2)c(C(F)(F)F)nc2cc(-c3ncco3)ccn12` [Example 29, 8-(1,3-Oxazol-2-yl)-3-(4-(2,2,2-trifluoroethoxy)phenyl)-2-(trifluoromethyl)-4H-pyrido[1,2-a]pyrimidin-4-one] showed a concentration for half-maximal inhibition (IC50) of 0.0971 µM.
`O=c1c(-c2cnn(CC(F)(F)C(F)(F)F)c2)c(C(F)(F)F)nc2cc(C3CC3)ccn12` [Example 1-87, 8-cyclopropyl-3-(1-(2,2,3,3,3-pentafluoropropyl)-1H-pyrazol-4-yl)-2-(trifluoromethyl)-4H-pyrido[1,2-a]pyrimidin-4-one] yielded an IC50 of 0.0859 µM.
As for `COc1cn2c(=O)c(-c3cnn(CC(F)(F)C(F)(F)F)c3)c(C(F)(F)F)nc2cn1` [Example 39-37, 7-methoxy-3-[1-(2,2,3,3,3-pentafluoropropyl)-1H-pyrazol-4-yl]-2-(trifluoromethyl)-4H-pyrazino[1,2-a]pyrimidin-4-one], inhibition was half-maximal at 0.061 µM (IC50).
`Cc1ccc2nc(C(F)(F)F)c(-c3cnc(OCC(F)(F)F)nc3)c(=O)n2n1` [Example 39-36, 7-methyl-3-[2-(2,2,2-trifluoroethoxy)pyrimidin-5-yl]-2-(trifluoromethyl)-4H-pyrimido[1,2-b]pyridazin-4-one] gave an IC50 of over 67 µM.
Under `COc1ccn2c(=O)c(-c3cnn(CC(F)(F)C(F)(F)F)c3)c(C(F)(F)F)nc2c1F` [Example 39-4, 9-fluoro-8-methoxy-3-[1-(2,2,3,3,3-pentafluoropropyl)-1H-pyrazol-4-yl]-2-(trifluoromethyl)-4H-pyrido[1,2-a]pyrimidin-4-one] stands 0.0464 µM.
Take `COc1ccn2c(=O)c(-c3ccc(OCC(F)(F)F)cc3C(F)(F)F)c(C(F)(F)F)nc2c1` [Example 8-2, 8-methoxy-3-(4-(2,2,2-trifluoroethoxy)-2-(trifluoromethyl)phenyl)-2-(trifluoromethyl)-4H-pyrido[1,2-a]pyrimidin-4-one]: the IC50 came out at 0.605 µM.
Molecule `CN(C)Cc1ccc2nc(C(F)(F)F)c(-c3cnn(CC(F)(F)C(F)(F)F)c3)c(=O)n2c1` [Example 39-29, 7-[(dimethylamino)methyl]-3-[1-(2,2,3,3,3-pentafluoropropyl)-1H-pyrazol-4-yl]-2-(trifluoromethyl)-4H-pyrido[1,2-a]pyrimidin-4-one] had a half-maximal inhibitory concentration (IC50) of over 67 µM.
The molecule `O=c1c(-c2cnn(CC(F)(F)C(F)(F)F)c2)c(C(F)(F)F)nc2cc(N3CCC3)ccn12` [Example 1-88, 8-(1-azetidinyl)-3-(1-(2,2,3,3,3-pentafluoropropyl)-1H-pyrazol-4-yl)-2-(trifluoromethyl)-4H-pyrido[1,2-a]pyrimidin-4-one] had an IC50 of 2.35 µM.
Take `CCc1nc2cc(OC)ccn2c(=O)c1-c1cnn(CC(F)(F)C(F)(F)F)c1` [Example 3-1, 2-Ethyl-8-methoxy-3-(1-(2,2,3,3,3-pentafluoropropyl)-1H-pyrazol-4-yl)-4H-pyrido[1,2-a]pyrimidin-4-one]: the IC50 is 0.0539 µM.
For the molecule `COCc1ccn2c(=O)c(-c3cnn(CC(F)(F)C(F)(F)F)c3)c(C(F)(F)F)nc2c1` [Example 36, 8-(Methoxymethyl)-3-[1-(2,2,3,3,3-pentafluoropropyl)-1H-pyrazol-4-yl]-2-(trifluoromethyl)-4H-pyrido[1,2-a]pyrimidin-4-one], the IC50 came out at 0.162 µM.
In turn, `Cc1cn2c(=O)c(-c3cnc(OCC(F)(F)F)nc3)c(C(F)(F)F)nc2cn1` [Example 39-30, 7-methyl-3-[2-(2,2,2-trifluoroethoxy)pyrimidin-5-yl]-2-(trifluoromethyl)-4H-pyrazino[1,2-a]pyrimidin-4-one] showed an IC50 of over 67 µM.
Under `CCCc1cc(-c2c(C(F)(F)F)nc3cc(OC)ccn3c2=O)no1` [Example 61, 8-Methoxy-3-(5-propyl-1,2-oxazol-3-yl)-2-(trifluoromethyl)-4H-pyrido[1,2-a]pyrimidin-4-one] stands 0.0469 µM; under `COc1ccn2c(=O)c(-c3cnn(CC#N)c3)c(C(F)(F)F)nc2c1` [Example 1-26, (4-(8-methoxy-4-oxo-2-(trifluoromethyl)-4H-pyrido[1,2-a]pyrimidin-3-yl)-1H-pyrazol-1-yl)acetonitrile], 0.278 µM.
Molecule `O=c1c(-c2ccc(OCC(F)(F)F)cc2)c(C(F)(F)F)nc2cc(C3CNC3)ccn12` [Example 28, 8-(3-Azetidinyl)-3-(4-(2,2,2-trifluoroethoxy)phenyl)-2-(trifluoromethyl)-4H-pyrido[1,2-a]pyrimidin-4-one] returned an IC50 of 2.94 µM.
`Cc1cc2nc(C(F)(F)F)c(-c3cnn(CCC(F)(F)F)c3)c(=O)n2cc1Cl` [Example 41-2, 7-chloro-8-methyl-2-(trifluoromethyl)-3-[1-(3,3,3-trifluoropropyl)-1H-pyrazol-4-yl]-4H-pyrido[1,2-a]pyrimidin-4-one] displayed a 50% inhibitory concentration (IC50) of 0.0511 µM.
With `COc1cnn2c(=O)c(-c3cnc(OCC(F)(F)F)nc3)c(C(F)(F)F)nc2c1` [Example 38, 8-Methoxy-3-[2-(2,2,2-trifluoroethoxy)pyrimidin-5-yl]-2-(trifluoromethyl)-4H-pyrimido[1,2-b]pyridazin-4-one], 0.0992 µM corresponded to half-maximal inhibition (IC50).
Under `Cc1cc2nc(C(F)(F)F)c(-c3cnn(CC(F)(F)C(F)(F)F)c3)c(=O)n2nc1C` [Example 39-46, 7,8-dimethyl-3-[1-(2,2,3,3,3-pentafluoropropyl)-1H-pyrazol-4-yl]-2-(trifluoromethyl)-4H-pyrimido[1,2-b]pyridazin-4-one] stands 6.77 µM; under `C[S+]([O-])c1ccn2c(=O)c(-c3cnn(CC(F)(F)C(F)(F)F)c3)c(C(F)(F)F)nc2c1` (stereo not shown) [Example 15-4, 8-(methylsulfinyl)-3-(1-(2,2,3,3,3-pentafluoropropyl)-1H-pyrazol-4-yl)-2-(trifluoromethyl)-4H-pyrido[1,2-a]pyrimidin-4-one], 0.712 µM.

(Values after patent publication US12473289B2, “Heterocyclic compounds as delta-5 desaturase inhibitors and methods of use” (Amgen Inc., priority 2019, dated 2025).)
